According to patent US6107070A, “Human manganese superoxide dismutase proteins” (University of Florida, priority 1998, dated 2000):
Positions count from the first letter of the chain named. “And” between values parts separate entries of the source, which are not always exact repeats. Equal entries are not always repeated.

Columns and labels:
Type in all cases: biochemical
[1] = target: T1, human manganese superoxide dismutase (hMn SOD) variant H30Q (His 30 replaced by Gln) (Homo sapiens, UniProt P04179, H54Q); test: Disproportionation of superoxide by H30Q hMnSOD, stopped-flow, 20° C.; details: pH 9.6, 20° C.
T1 construct: as a mature protein tagged with an extra Met at the amino terminus; made in house
T1 sequence (P04179 25-222 H54Q): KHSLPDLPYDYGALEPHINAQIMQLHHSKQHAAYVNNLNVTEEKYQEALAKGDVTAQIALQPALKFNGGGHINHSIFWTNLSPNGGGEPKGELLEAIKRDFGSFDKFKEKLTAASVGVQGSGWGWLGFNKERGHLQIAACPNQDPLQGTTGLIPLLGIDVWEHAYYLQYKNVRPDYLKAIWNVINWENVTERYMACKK
Method: (§1) Experiments were based on the stabilization of KO2 in aprotic solvent and the subsequent large dilution of this solution by an aqueous solution of enzyme in a stopped-flow apparatus, as described by McClune and Fee (1978). KO2 was dissolved in a mixture of dimethyl sulfoxide and […] (2:1 by volume; Aldrich, spectrophotometric grade) with solubility of KO2 enhanced with 18-crown-6 (Valentine and Curtis, 1975). The stopped-flow spectrophotometer (Kinetic Instruments, Ann Arbor, Mich.) was capable of efficient mixing of this solution with an acqueous solution of enzyme in buffer with a dead time between 1.5 and 2.0 ms. One drive syringe (capacity 50 μl) contained the aprotic solution of O2. This was diluted fifty-fold by the contents of a second syringe (capacity 2.5 ml) which contained enzyme, EDTA, and buffer. The decay of superoxide in initial velocity experiments and progress curves was monitored by its absorption at 250 to 300 nm. Stopped-flow experiments were carried out at […]. Four or more kinetic traces were averaged to reduce noise. Steady-state parameters were obtained by least-squares analysis of such data (Leatherbarrow (1987) "Enzfitter: a nonlinear regression data analysis program for the IBM PC" Elsevier BIOSOFT, Cambridge).
(§2) In the present study, several novel hMnSOD proteins containing substitutions of His 30 (referring to the amino acid sequence of SEQ ID NO:2) were prepared by PCR site directed mutagenesis and purified by column chromatography, as described in the Materials and Methods section above, and as also described by Hsu et al. (1996) J. Biol. Chem. 271: 1768; and Hsieh et al. (1998) Biochemistry 37: 4731. In particular, His 30 was substituted with each of Ala, Asn, Ser and Gln. The resulting novel hMnSOD proteins containing a His 30 substitution were then assayed for enzymatic activity and product inhibition at 20° C. by measuring the absorbance of superoxide at 250 nm using stopped-flow spectrophotometry, as described above in the Materials and Methods section. […]

[2] = target: T2, human manganese superoxide dismutase (hMn SOD) variant H30N (His 30 replaced by Asn) (Homo sapiens, UniProt P04179, H54N); test: Disproportionation of superoxide by H30N hMnSOD, stopped-flow, 20° C.; details: pH 9.6, 20° C.
T2 construct: as a mature protein tagged with an extra Met at the amino terminus; made in house
T2 sequence (P04179 25-222 H54N): T1 sequence (P04179 25-222 H54Q) with Q30N
Method: as §1, §2

[3] = target: T3, human manganese superoxide dismutase (hMn SOD) variant Q143N (Gln 143 replaced by Asn), SEQ ID NO:3 (Homo sapiens, UniProt P04179, Q167N); test: Decay of superoxide catalyzed by Q143N hMnSOD, stopped-flow spectrophotometry at 5° C.
T3 construct: as a mature protein tagged with an extra Met at the amino terminus; made in house; host or cells: E. coli QC774 (SodA/SodB mutant), pTrc99A
T3 sequence (P04179 25-222 Q167N): T1 sequence (P04179 25-222 H54Q) with Q30H, Q143N
Method: as §1

[4] = target: T4, human manganese superoxide dismutase (hMn SOD) variant H30S (His 30 replaced by Ser) (Homo sapiens, UniProt P04179, H54S); test: Disproportionation of superoxide by H30S hMnSOD, stopped-flow, 20° C.; details: pH 9.6, 20° C.
T4 construct: as a mature protein tagged with an extra Met at the amino terminus; made in house
T4 sequence (P04179 25-222 H54S): T1 sequence (P04179 25-222 H54Q) with Q30S
Method: as §1, §2

[5] = target: T5, human manganese superoxide dismutase (hMn SOD) variant H30E (Homo sapiens, UniProt P04179, E155Q/H54E); test: Disproportionation of superoxide by H30E hMnSOD, 20° C.; details: Table 4; pH 9.4, 20° C.
T5 construct: as a mature protein tagged with an extra Met at the amino terminus; made in house
T5 sequence (P04179 25-222 H54E/E155Q): T1 sequence (P04179 25-222 H54Q) with Q30E, E131Q

[6] = FIG. 2, Michaelis-Menten fit, H2O, 50 mM glycine buffer, 1 mM EDTA, pH 9.4, 5° C.
[7] = Table 1, stopped-flow spectrophotometry, 5° C., pH 9.4
[8] = Table 2, KINSIM fit of FIG. 8 scheme to stopped-flow data, 5° C., pH 9.4

For [O]O [superoxide], the kcat ([1]; Table 4) was 1.0 ms^.1, the “kcat /Km” value ([1]; Table 4) was 43 μM^.1 S^.1 and the “ko /[E] (rate constant for the zero-order region of catalysis)” value (shortened to “ko /[E]”) ([1]; Table 5) was 510 S^.1. The kcat ([2]; Table 4) was 2.9 ms^.1, the “kcat /Km” value ([2]; Table 4) was 91 μM^.1 S^.1 and the “ko /[E]” value ([2]; Table 5) was 1,300 S^.1. The kcat [3, 6] was 160 s⁻¹, the “kcat /Km” value [3, 6] was 850000 M⁻¹ s⁻¹ and the “maximal value of Kcat /Km” value ([3]; FIG. 3, fit of pH profile pH 8.5 to 10.5, 5° C.) was ~7×10^6 M^-1 s^-1 and 7±3×10^6 M^-1 s^-1. The “maximal value of Kcat” value ([3]; FIG. 4, fit of pH profile, 5° C., in 1/s) was 310±30, the kcat [3, 7] was 0.3 ms^-1 and the kcat /km [3, 7] was 820000 M⁻¹ s⁻¹. For the same molecule, the k1 [3, 8] was 2e+09 M⁻¹ s⁻¹, the k2 [3, 8] was 600 s⁻¹ and the k3 [3, 8] was 2e+09 M⁻¹ s⁻¹. The k4 [3, 8] was 600 s⁻¹, the k-1 [3, 8] was 1.5e+06 s⁻¹ and the k-4 [3, 8] was 1000 M⁻¹ s⁻¹. The k-5 ([3]; Table 2, KINSIM fit, dead-end complex, 5° C., pH 9.4) was 200 s⁻¹, the k5 ([3]; Table 2, KINSIM fit, formation of dead-end complex, 5° C., pH 9.4) was 20000 s⁻¹ and the “kcat /Km” value ([3]; observed at pH 9.4, 5° C.) was 7×10^5 M^1 s^1. The “maximal value of Kcat” value ([3]; pH dependence (FIG. 4)) was roughly 300 s⁻¹, the kcat ([4]; Table 4) was 1.8 ms^.1 and the “kcat /Km” value ([4]; Table 4) was 170 μM^.1 S^.1. The “ko /[E]” value ([4]; Table 5) was 1,000 S^.1, the kcat [5] was 0.052 ms^.1 and the “kcat /Km” value [5] was 0.63 μM^.1 S^.1.
